From patent publication US11873306B1, “Nano-sized 5,10,15,20-tetrakis (4-hydroxyphenyl)-porphyrins pd(II) complex for super medicinal applications” (KING FAISAL UNIVERSITY, priority 2023, dated 2024)
Converted amounts (≈) assume the structure as drawn. Read-outs that look alike come from different tables or passages of the source. Blank lines part the entries; values can stand above or below the compound they belong to.

Columns and labels:
Aspergillus flavus = experiment: Antifungal activity, Aspergillus flavus (inhibition zone and MIC); assay type: cell-based; conditions: Aspergillus flavus fungi
E. coli = experiment: Antimicrobial activity, E. coli (inhibition zone and MIC); assay type: cell-based; conditions: E. coli bacteria
breast cancer cell line [1] = experiment: Anti-cancer activity, breast cancer cell line; assay type: cell-based, human
breast cancer cell line [2] = experiment: Antioxidant activity; assay type: cell-based; conditions: against a breast cancer cell line
Microccus luteus = experiment: Antimicrobial activity, Microccus luteus (inhibition zone and MIC); assay type: cell-based
[3] = tested on: Colon carcinoma cells (HCT-116 cell line); experiment: Anti-cancer activity, colon carcinoma cells; assay type: cell-based
[4] = Homo sapiens, read-out: IC50 (anticancer activity)

Compound: 5,10,15,20-Tetrakis (4-hydroxyphenyl)-Porphyrins Pd(II) complex [prepared complex]
MIC (Aspergillus flavus): 1.75 µg/mL
inhibition zone (Aspergillus flavus): 23.25 mm
inhibition zone (Aspergillus flavus; listed as present complex): about 23.25 mm
MIC (E. coli): 1.5 µg/mL
inhibition zone (E. coli; listed as prepared nano complex): 33 mm
inhibition zone (E. coli; listed as present complex): about 33 mm
IC50 (anticancer activity) (breast cancer cell line [1]): 4.5 µg/mL
IC50 (antioxidant activity) (breast cancer cell line [2]): 10.5 µg/mL
MIC (Microccus luteus): 0.75 µg/mL
inhibition zone (Microccus luteus): 41.5 mm
inhibition zone (Microccus luteus; listed as present complex): about 41.5 mm
IC50 (anticancer activity) [3]: 4.9 µg/mL

Compound: O=C1O[C@H]([C@@H](O)CO)C(O)=C1O [1-ascorbic acid, reference compound]
IC50 (antioxidant activity) (breast cancer cell line [2]): 55.2 µg/mL (≈ 313 µM)

MIC (Aspergillus flavus; read-out: MIC): 2.5 µg/mL (≈ 8.16 µM)
Compound: OC(Cn1cncn1)(Cn1cncn1)c1ccc(F)cc1F [Fluconazol, reference compound]
inhibition zone (Aspergillus flavus): 22.00 mm

Compound: CC1COc2c(N3CCN(C)CC3)c(F)cc3c(=O)c(C(=O)O)cn1c23 (stereo not drawn) [Ofloxacin, reference compound]
inhibition zone (E. coli): 30 mm
MIC (E. coli; Escherichia coli, read-out: MIC): 2.25 µg/mL (≈ 6.23 µM)
inhibition zone (Microccus luteus): 39.75 mm
MIC (Microccus luteus; read-out: MIC): 1.25 µg/mL (≈ 3.46 µM)

IC50 (breast cancer cell line [1]; [4]): 5.2 µg/mL (≈ 6.41 µM)
IC50 [3, 4]: 5.41 µg/mL (≈ 6.67 µM)
Compound: CC[C@]1(O)C[C@@H]2CN(CCc3c([nH]c4ccccc34)[C@@](C(=O)OC)(c3cc4c(cc3OC)N(C)[C@H]3[C@@](O)(C(=O)OC)[C@H](OC(C)=O)[C@]5(CC)C=CCN6CC[C@]43[C@@H]65)C2)C1 [vinblastine, reference compound]
